What all share (conditions): incubation time: 72 h
Assay [1] concerns BT-549. The experiment in a line: drug sensitivity score (DSS), CellTox Green (DSS (AUC-based score)); higher = stronger drug effect (viability inhibition or cytotoxicity); extreme values may be limits of the assay. The gist of the method:
(§1)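 After 72 h of incubation in 384-well plates with compound at 5 concentrations (10-fold steps, 10,000-fold range set per compound), breast cancer cell lines seeded in 20 µl suspension were read first for CellTox Green fluorescence at 485/520 nm. CellTiter-Glo luminescence was measured next, after 10 min at room temperature. Normalisation on each plate used 0.1 % DMSO and a positive kill control, and the drug sensitivity score was computed from the area under the fitted dose-response curve.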

In assay [2] the test system is MDA-MB-453. The assay is described as above. The method in brief:
as §1

A further assay relates to HCC1599. The description is as above. The gist of the method:
as §1

Another assay deals with MDA-MB-436. Described as above. The gist of the method: as §1
The next assay concerns CAL-120. The description is as above. The method in brief: as §1
The next assay has as its system MCF-10A. Described as above. The gist of the method: as §1
The test system of assay [3] is HCC1937. The description is as above. The gist of the method:
as §1

Another assay deals with CAL-148. The description is as above. The gist of the method: as §1
The next assay concerns HDQ-P1. The description is as above. The gist of the method: as §1
The next assay deals with HCC1143. The description is as above. The method in brief:
as §1

A further assay has as its system MDA-MB-231. The assay is described as above. The gist of the method: as §1
Assay [4] concerns CAL-51. The assay is described as above. The method in brief:
as §1

For assay [5], the system named is BT-474. The assay is described as above. The gist of the method: as §1
For the next assay, the system named is Hs578T. The description is as above. The gist of the method: as §1
The subject of assay [6] is DU-4475. Described as above. The gist of the method: as §1
In another assay the test system is MFM-223. Described as above. The method in brief: as §1
In a further assay the test system is CAL-85-1. Described as above. The gist of the method:
as §1

In another assay the test system is MDA-MB-468. Described as above. The gist of the method: as §1
In assay [7] the test system is BT-549. The experiment in a line: normalised viability (% of control), CellTiter-Blue; higher = more viable cells (about 100 = DMSO control). The gist of the method:
(§2)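 Plates were quality-checked by Z'-factor and normalised to vehicle (100) and a positive kill control (0). The underlying assay incubated breast cancer cell lines for 72 h on 384-well plates with compound, then added 2.5 µl CellTiter-Blue for 2 h at 37 °C and read at 560/590 nm. The value is normalised viability at a single listed concentration of the series.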

Assay [8] deals with MDA-MB-453. Described as above. The gist of the method:
as §2

Assay [9] concerns HCC1937. The assay is described as above. The method in brief: as §2
The test system of assay [10] is CAL-51. Described as above. The method in brief: as §2
Assay [11] concerns BT-474. The description is as above. The method in brief: as §2
Assay [12] deals with DU-4475. The assay is described as above. The gist of the method: as §2

For the compound `COc1cc(Nc2ncc(F)c(Nc3ccc4c(n3)NC(=O)C(C)(C)O4)n2)cc(OC)c1OC` [Tamatinib], the drug sensitivity score in the assay on BT-549 [1], with MDA-MB-453 [2], in the assay on HCC1599, in the assay on MDA-MB-436, with CAL-120 and in the assay with MCF-10A was 0 each time. The drug sensitivity score in the assay on HCC1937 [3] is 0; in the assay on CAL-148, 0; in the assay with HDQ-P1, 0; with HCC1143 it was 0; in the assay on MDA-MB-231, 0; in the assay on CAL-51 [4], 1.13. In addition, the drug sensitivity score in the assay with BT-474 [5], in the assay on Hs578T, with DU-4475 [6], in the assay with MFM-223 and in the assay with CAL-85-1 was 0 each time.
For the compound `FC(F)c1nc2ccccc2n1-c1nc(N2CCOCC2)nc(N2CCOCC2)n1` [ZSTK474], the drug sensitivity score in the assay on BT-549 [1], in the assay on MDA-MB-453 [2], in the assay on HCC1599, with MDA-MB-436, in the assay with CAL-120 and in the assay with MCF-10A was 0 each time. Moreover, the drug sensitivity score with HCC1937 [3], in the assay with CAL-148, with HDQ-P1, in the assay with HCC1143, with MDA-MB-468 and in the assay on MDA-MB-231 was 0 each time. Also, the drug sensitivity score with CAL-51 [4] was determined as 0; in the assay on BT-474 [5], 0.64; in the assay on Hs578T it was 0; in the assay with DU-4475 [6], 0; with MFM-223, 3.44; in the assay with CAL-85-1 it was 0.
For `CC(C)(C)c1cc(NC(=O)Nc2ccc(-c3cn4c(n3)sc3cc(OCCN5CCOCC5)ccc34)cc2)no1` [Quizartinib], the drug sensitivity score with BT-549 [1], in the assay on MDA-MB-453 [2], in the assay on HCC1599, in the assay with CAL-120, in the assay on MCF-10A and in the assay with HCC1937 [3] was 0 throughout. Moreover, the drug sensitivity score in the assay with CAL-148, with HDQ-P1, with HCC1143, in the assay on MDA-MB-468, in the assay on MDA-MB-231 and in the assay on CAL-51 [4] was 0 each time. Moreover, the drug sensitivity score with BT-474 [5] is 0; in the assay with Hs578T, 3.83; with DU-4475 [6], 0; in the assay with MFM-223 it was 0; in the assay with CAL-85-1, 0. The normalised viability with BT-549 [7] (1 nM) was 89.4%; in the assay with BT-549 [7] (100 nM), 95.1%; in the assay on BT-549 [7] (1000 nM), 44%; in the assay on MDA-MB-453 [8] (0.3 nM) it was 118%; in the assay on MDA-MB-453 [8] (3 nM) it was 110%; in the assay on MDA-MB-453 [8] (10 nM), 105%. The normalised viability in the assay with HCC1937 [9] (1 nM) stood at 59.2%; in the assay on HCC1937 [9] (100 nM), 81.8%; with HCC1937 [9] (1000 nM) it was 99.8%; in the assay with CAL-51 [10] (0.3 nM), 115%; in the assay with CAL-51 [10] (3 nM), 106%; in the assay on CAL-51 [10] (10 nM) it was 110%. The normalised viability was found to be 95.2% with BT-474 [11] (1 nM); 104% in the assay with BT-474 [11] (100 nM); 96.6% in the assay with BT-474 [11] (1000 nM); 95.8% with DU-4475 [12] (0.3 nM); 98.6% in the assay with DU-4475 [12] (3 nM); 93.3% in the assay on DU-4475 [12] (10 nM).
For `Cc1cc(C(C)Nc2ccccc2)c2nc(N3CCOCC3)cc(=O)n2c1` (configuration not stated) [TGX-221], the drug sensitivity score in the assay on BT-549 [1] stood at 0; with MDA-MB-453 [2] it was 0; in the assay with HCC1599 it was 0; in the assay on MDA-MB-436, 0; with CAL-120 it was 0; with MCF-10A, 1.09. The drug sensitivity score in the assay on HCC1937 [3] came out at 0; in the assay on CAL-148 it was 0; with HDQ-P1, 11.9; in the assay on HCC1143 it was 0; with MDA-MB-468 it was 0; with MDA-MB-231, 0.585. In addition, the drug sensitivity score in the assay with CAL-51 [4], with BT-474 [5], in the assay with DU-4475 [6], in the assay with MFM-223 and in the assay on CAL-85-1 was 0 in each case.

The values are drawn from the supplement of paper PMC4862054.
